For test [1], the system named is NPC1. The test is described as follows: NPC1 variant trafficking index (TrIdx, endo H resistance) in NPC1 null cell lines. Type of test: cell-based, human. The source says:
(§1) NPC1 is composed of multiple domains that harbor the different variants contributing to disease. Given the heterozygous allelic composition of most NPC1 primary fibroblasts that compromise interpretation of the impact of a specific allele on disease progression, we silenced NPC1 expression with shRNA to generate stable null cell lines. These null cell lines were transiently transfected with a sparse collection of plasmids that each harbor one of 48 distinct NPC1 disease-associated variants in NPC1 distributed among the various NPC1 domains. […] We binned this sparse collection of variants into 4 functional classes (Cass I-IV). Class I variants lack polypeptide expression in response to non-sense and/or splicing (truncation) mutations (null), Class II missense variants are largely ER retained (defined as <0.2 TrIdx), Class III missense variants show an intermediate level of trafficking (defined as 0.2 to 0.5 TrIdx) and Class IV missense variants have a level of trafficking >0.5 TrIdx indicating significant export from the ER. […] The impact of cholesterol (ChoI) storage in the LE/LY for each of these variants was measured using automated high content screening image analysis based on filipin staining.
(§2) Each of the 48 NPC1 variants was examined for the impact of SAHA on both TrIdx and ChoI in the LE/LY. […] The effects of HDACi were NPC1-dependent as restoration of ChoI homeostasis by SAHA was not observed in fibroblasts lacking NPC1 and in null cell-lines lacking NPC1.

The test system of test [2] is NPC1. As to the kind of experiment: cholesterol storage in LE/LY by filipin staining, high content image analysis. In kind it is cell-based, human.
Text: as §1, §2

Test [3] concerns NPC1. To be noted: cited from earlier work.
For a further test, the target named is CFTR (Homo sapiens, UniProt P13569, DEL508-508). To be noted: cited from earlier work.
Sequence of CFTR (P13569 with tags, fused parts or gaps DEL508-508): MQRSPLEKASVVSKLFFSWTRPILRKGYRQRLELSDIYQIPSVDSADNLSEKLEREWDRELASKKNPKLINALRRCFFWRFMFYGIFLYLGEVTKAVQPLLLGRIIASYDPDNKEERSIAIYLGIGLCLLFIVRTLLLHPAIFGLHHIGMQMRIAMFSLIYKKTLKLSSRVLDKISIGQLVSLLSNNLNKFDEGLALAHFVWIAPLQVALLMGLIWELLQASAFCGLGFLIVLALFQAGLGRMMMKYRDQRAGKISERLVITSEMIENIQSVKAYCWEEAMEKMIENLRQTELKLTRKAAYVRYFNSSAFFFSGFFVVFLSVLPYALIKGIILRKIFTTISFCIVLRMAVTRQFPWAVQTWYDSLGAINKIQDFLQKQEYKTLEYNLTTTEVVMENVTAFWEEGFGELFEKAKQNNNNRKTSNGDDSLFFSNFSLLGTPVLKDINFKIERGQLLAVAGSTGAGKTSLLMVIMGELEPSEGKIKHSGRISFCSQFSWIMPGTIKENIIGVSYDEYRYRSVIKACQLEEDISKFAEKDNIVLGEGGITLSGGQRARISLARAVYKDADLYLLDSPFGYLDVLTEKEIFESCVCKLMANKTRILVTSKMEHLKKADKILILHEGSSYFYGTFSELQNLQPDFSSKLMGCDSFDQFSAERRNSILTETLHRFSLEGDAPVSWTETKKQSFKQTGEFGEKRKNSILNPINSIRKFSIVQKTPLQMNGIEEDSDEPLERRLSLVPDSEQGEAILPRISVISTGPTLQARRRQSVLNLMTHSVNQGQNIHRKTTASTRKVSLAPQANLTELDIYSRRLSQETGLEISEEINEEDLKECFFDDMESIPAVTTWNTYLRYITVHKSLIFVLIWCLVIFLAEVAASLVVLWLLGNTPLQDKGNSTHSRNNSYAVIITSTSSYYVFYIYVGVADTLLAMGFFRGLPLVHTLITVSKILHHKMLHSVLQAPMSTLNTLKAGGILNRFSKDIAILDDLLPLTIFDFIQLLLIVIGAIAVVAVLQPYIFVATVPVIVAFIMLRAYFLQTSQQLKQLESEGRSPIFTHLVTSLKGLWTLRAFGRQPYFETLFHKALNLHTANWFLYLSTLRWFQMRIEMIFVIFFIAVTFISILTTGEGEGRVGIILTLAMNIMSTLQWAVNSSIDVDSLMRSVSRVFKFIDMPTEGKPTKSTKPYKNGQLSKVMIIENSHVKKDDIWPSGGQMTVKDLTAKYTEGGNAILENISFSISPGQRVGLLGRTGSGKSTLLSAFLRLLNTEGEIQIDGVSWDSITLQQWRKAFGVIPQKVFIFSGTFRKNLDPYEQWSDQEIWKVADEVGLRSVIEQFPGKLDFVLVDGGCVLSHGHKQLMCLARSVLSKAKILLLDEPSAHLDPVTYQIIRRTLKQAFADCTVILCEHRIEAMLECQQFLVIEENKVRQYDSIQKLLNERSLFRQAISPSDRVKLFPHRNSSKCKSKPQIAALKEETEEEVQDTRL

With `O=C(CCCCCCC(=O)Nc1ccccc1)NO` [SAHA, Vorinostat], the TrIdx result in the test with NPC1 [1] (NPC1 H510P) is “inability of SAHA to improve”; with NPC1 [1] (NPC1 P532L) it was “improved”; in the test with NPC1 [1] (NPC1 R518Q), “large improvement”. Moreover, the “TrIdx class after treatment” value in the test with NPC1 [1] (majority of NPC1 variants with a TrIdx<0.2) is “at least a Class III TrIdx”. The trafficking result in the test on NPC1 [1] (variants involved in the predicted path of cholesterol flow, TM region) is given as “not changed”. For the same compound, the ChoI result with NPC1 [2] (NPC1 H510P) is listed as “lack of significant correction”; in the test on NPC1 [2] (NPC1 P532L) it was “improved”. The cholesterol homeostasis result in the test on NPC1 [2] (NPC1 R518Q) is on record as “does not significantly improve”. Besides, the response to treatment result in the test with NPC1 [2] (NPC1 V950M, S954L, P1007A and T1036M (CLD5, late age of neurological onset cluster)) was “highly responsive”. In the test on NPC1 [2] (fibroblasts lacking NPC1 and null cell-lines lacking NPC1), the “restoration of ChoI homeostasis” value is “not observed”. The “cholesterol homeostasis of NPC1 variants” value in the test on NPC1 [2] (in all domains) is “significantly restored”. Besides, the cholesterol storage state entry with NPC1 [2] (variants along the predicted cholesterol flow path (R1077Q, Y1088C, W1145R, Y634C, P691S, L1191F)) was “improved to level of WT or even better than WT”. The “correction of the I1061T phenotype (protein stabilized for export to LE/LY, improved cholesterol homeostasis)” value in the test on NPC1 [3] is recorded as “correct the I1061T phenotype”.

`CC(C)(C)c1cc(C(C)(C)C)c(NC(=O)c2c[nH]c3ccccc3c2=O)cc1O` [Ivacaftor]: at CFTR, the “effect on export or function of F508del” value was “no effect”.

The values are drawn from US12584173B2, “Methods for disease treatment and drug discovery” (The Scripps Research Institute, priority 2018, dated 2026).
